In patent US11932607B1, “4-(2,4,5-tris(4-chlorophenyl)-1H-imidazol-1-yl)benzoic acid as an antimicrobial compound” (KING FAISAL UNIVERSITY, priority 2023, dated 2024):

Experiments:
Type in all cases: cell-based
Bacillus cereus = assay: Agar plate disc-diffusion, antibacterial activity (inhibition zone); settings: Gram positive, DMSO control zone subtracted
Procedure: (§1) The agar plate disc-diffusion method was applied. […] The discs were then placed onto the surface of agar plates (nutrient agar for bacteria and Sabouraud's dextrose agar for fungi) seeded with the test organism. Each plate contained 15 mL of the agar medium, previously seeded with 0.2 mL of the broth culture of each organism pregrown for 18 hours. The plates were incubated at 37° C. for 48 hours, and 72 hours for fungi. The inhibition zones was measured in mm. Discs impregnated with DMSO were used as a control, and its inhibition zone was subtracted from the tested compound actual inhibition zone.

Escherichia coli = assay: as above; settings: Gram negative, DMSO control zone subtracted
Procedure: as §1

Pseudomonas aeruginosa = assay: as above; settings: Gram negative, DMSO control zone subtracted
Procedure: as §1

Staphylococcus aureus = assay: as above; settings: Gram positive, DMSO control zone subtracted
Procedure: as §1

Aspergillus flavus = assay: Agar plate disc-diffusion, antifungal activity (inhibition zone); settings: fungal, DMSO control zone subtracted
Procedure: as §1

[1] = system: Chrysosporium keratinophilum; assay: as above; settings: fungal, DMSO control zone subtracted
Procedure: as §1

[2] = A = concentration of comp. = 10,000 μL
[3] = B = concentration of comp. = 30,000 μL
[4] = C = concentration of comp. = 50,000 μL

O=C(O)c1ccc(-n2c(-c3ccc(Cl)cc3)nc(-c3ccc(Cl)cc3)c2-c2ccc(Cl)cc2)cc1 [V, 4-(2,4,5-tris(4-chlorophenyl)-1H-imidazol-1-yl)benzoic acid]
inhibition zone, Bacillus Cereus, A (Bacillus cereus; [2]): 24 mm
inhibition zone, Bacillus Cereus, B (Bacillus cereus; [3]): 27 mm
inhibition zone, Bacillus Cereus, C (Bacillus cereus; [4]): 35 mm
inhibition zone, Escherichia coli, A (Escherichia coli; [2]): 25 mm
inhibition zone, Escherichia coli, B (Escherichia coli; [3]): 28 mm
inhibition zone, Escherichia coli, C (Escherichia coli; [4]): 39 mm
inhibition zone, Pseudomonas aeruginosa, A (Pseudomonas aeruginosa; [2]): 24 mm
inhibition zone, Pseudomonas aeruginosa, B (Pseudomonas aeruginosa; [3]): 27 mm
inhibition zone, Pseudomonas aeruginosa, C (Pseudomonas aeruginosa; [4]): 32 mm
inhibition zone, Staphylococcus aureus, A (Staphylococcus aureus; [2]): 15 mm
inhibition zone, Staphylococcus aureus, B (Staphylococcus aureus; [3]): 22 mm
inhibition zone, Staphylococcus aureus, C (Staphylococcus aureus; [4]): 26 mm
inhibition zone, Aspergillus flavus, A (Aspergillus flavus; [2]): 21 mm
inhibition zone, Aspergillus flavus, B (Aspergillus flavus; [3]): 24 mm
inhibition zone, Aspergillus flavus, C (Aspergillus flavus; [4]): 35 mm
inhibition zone, Chrysosporium keratinophilum, A [1, 2]: 25 mm
inhibition zone, Chrysosporium keratinophilum, B [1, 3]: 28 mm
inhibition zone, Chrysosporium keratinophilum, C [1, 4]: 48 mm
